# Tests used:
# [1] = molecular target: T1, NS3/4A H77C strain (Hepatitis C virus genotype 1a, UniProt P27958, C1454S); test: Recombinant HCV NS3/4A protease complex FRET peptide assay, H77C strain; format: biochemical, HCV genotype 1a
# T1 construct: DNA encoding the recombinant HCV NS3/4A protease complex (amino acids 1027 to 1711) for these strains; His tag (inferred from pET21b vector and Ni-NTA purification); made in house; host or cells: Escherichia coli BL21 (DE3)
# Source text: Recombinant HCV NS3/4A Protease Complex FRET Peptide Assay
# The purpose of this in vitro assay was to measure the inhibition of HCV NS3 protease complexes, derived from the BMS, H77C or J416S strains, as described below, by compounds of the present invention. This assay provides an indication of how effective compounds of the present invention would be in inhibiting HCV proteolytic activity.
# Serum from an HCV-infected patient was obtained from Dr. T. Wright, San Francisco Hospital. An engineered full-length cDNA (compliment deoxyribonucleic acid) template of the HCV genome (BMS strain) was constructed from DNA fragments obtained by reverse transcription-PCR (RT-PCR) of serum RNA (ribonucleic acid) and using primers selected on the basis of homology between other genotype 1a strains. From the determination of the entire genome sequence, a genotype 1a was assigned to the HCV isolate according to the classification of Simmonds et al. (See P Simmonds, K A Rose, S Graham, S W Chan, F McOmish, B C Dow, E A Follett, P L Yap and H Marsden, J. Clin. Microbiol., 31(6), 1493–1503 (1993)). […]
# [2] = molecular target: T2, HCV NS3/4A protease complex (UniProt P27958, C1454S/C1711G, species not given); test: Recombinant HCV NS3/4A protease complex FRET peptide assay (strain not stated); format: biochemical; conditions: read-out: IC50 range, HCV NS3/4A protease enzyme assay
# T2 construct: fused on or other part: Three-lysine solubilising tail at the C-terminus of NS4A
# T1 sequence (P27958 1027-1657 C1454S): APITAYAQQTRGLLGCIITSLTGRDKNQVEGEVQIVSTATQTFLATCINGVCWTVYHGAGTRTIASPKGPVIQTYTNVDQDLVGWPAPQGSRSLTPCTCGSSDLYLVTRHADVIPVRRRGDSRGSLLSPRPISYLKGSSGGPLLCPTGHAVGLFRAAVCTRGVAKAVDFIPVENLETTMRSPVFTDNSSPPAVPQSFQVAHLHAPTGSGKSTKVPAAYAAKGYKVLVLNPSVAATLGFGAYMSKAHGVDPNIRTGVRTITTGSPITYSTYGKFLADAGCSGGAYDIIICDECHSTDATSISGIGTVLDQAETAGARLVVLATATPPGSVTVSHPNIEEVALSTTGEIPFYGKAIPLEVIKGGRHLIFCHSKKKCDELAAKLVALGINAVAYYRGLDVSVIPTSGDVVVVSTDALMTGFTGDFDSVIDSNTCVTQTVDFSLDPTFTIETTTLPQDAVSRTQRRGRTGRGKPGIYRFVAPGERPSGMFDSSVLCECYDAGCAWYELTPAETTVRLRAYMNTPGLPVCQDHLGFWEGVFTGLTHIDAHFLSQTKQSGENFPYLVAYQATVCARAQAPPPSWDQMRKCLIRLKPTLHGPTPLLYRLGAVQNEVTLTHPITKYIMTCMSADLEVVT
# T1 sequence (P27958 1658-1714 partner, looked up, stated change not applied): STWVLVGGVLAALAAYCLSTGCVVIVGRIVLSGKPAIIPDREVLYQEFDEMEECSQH
smiles,measurement,setting,value
"C=CC1C[C@]1(NC(=O)[C@@H]1C[C@@H](OC(=O)Nc2ccccc2-c2ccccc2)CN1C(=O)[C@@H](NC(=O)OC(C)(C)C)C(C)(C)C)C(=O)NS(=O)(=O)C1CC1 (stereo partly drawn) [Compound 8, BocNH-P3(t-BuGly)-P2(Hyp(O—CO(NH-biphen-2-yl)))-P1(1R,2S VinylAcca)—CONHSO2Cyclopropane]",IC50,[1],11 nM
same,IC50,[2],< 100 nM
